Source: US20240109900A1, “AZABICYCLIC SHP2 INHIBITORS” (IRBM S.P.A., priority 2021, published 2024)
pIC50: −log10 of the molar value.

Each compound was assayed against SHP-2 enzyme (Met1-Leu525) (Homo sapiens (Human), UniProt Q06124) (assay: SHP2 inhibition enzymatic assay). Conditions: 0.5 nM SHP-2 activated by 500 nM IRS1 peptide, 75 μM DiFMUP substrate; read-out: SHP2wt-IC50.
Format: biochemical
Method: The assay was performed as described in YP Chen et al, Nature (535)2016. Assay volume of 20 μL/well was assembled in 384 well black polystyrene low-binding microplates (Greiner), using the following buffer: 60 mM HEPES pH 7.2, 75 mM NaCl, 75 mM KCl, 1 mM EDTA pH 8, 0.05% tween-20, 5 mM DTT. The SHP-2 enzyme (synthetized by Origene, Met1-Leu525, cat #TP750155) was used at a final concentration of 0.5 nM. The enzyme was activated by 500 nM IRS1 peptide (sequence: H2N-LN(pY)IDLDLV(dPEG8)LST(pY)ASINFQK-amide SEQ ID No. 1) and incubated with 75 μM DiFMUP (Sigma) as substrate.
Briefly, DMSO serially diluted testing compounds were transferred to the bottom of the assay plate. SHP2 was then added together with the IRS1 peptide. 30 min post incubation, the DiFMUP substrate was added to the reaction and incubated 30 min at room temperature. Finally 5 μL of 160 μM bpV (Potassium bisperoxo[1,10-phenanthroline]oxovanadate [V], Sigma) were added to stop and quench the reaction. The fluorescence was detected by a microplate reader (Envision, PerkinElmer) according to the DiFMUP excitation and emission wavelength. The lower the fluorescence the higher the SHP2 inhibition. […] The percentage inhibition is fitted against the compound dilutions with a four-parameter logistic regression. The inflection point (i.e. the concentration at which half-maximal inhibition is achieved) is the IC50.

Chain of SHP-2 enzyme (Met1-Leu525) (Q06124 1-525): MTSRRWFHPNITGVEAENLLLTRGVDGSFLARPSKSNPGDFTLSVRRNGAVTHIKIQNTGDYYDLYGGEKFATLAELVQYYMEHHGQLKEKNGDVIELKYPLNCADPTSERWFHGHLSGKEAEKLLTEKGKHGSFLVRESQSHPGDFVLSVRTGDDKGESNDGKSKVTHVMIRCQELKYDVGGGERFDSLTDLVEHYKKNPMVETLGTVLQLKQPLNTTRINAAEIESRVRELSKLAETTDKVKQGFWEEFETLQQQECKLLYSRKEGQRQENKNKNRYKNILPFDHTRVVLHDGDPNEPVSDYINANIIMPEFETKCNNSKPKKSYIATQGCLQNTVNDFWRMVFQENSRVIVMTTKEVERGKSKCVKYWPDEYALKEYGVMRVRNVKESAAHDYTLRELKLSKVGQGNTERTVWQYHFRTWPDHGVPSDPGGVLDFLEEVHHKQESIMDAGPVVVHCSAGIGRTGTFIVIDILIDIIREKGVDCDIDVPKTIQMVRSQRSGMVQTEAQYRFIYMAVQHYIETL

pIC50 | SMILES
> 6.30 | NC[C@]1(c2ccccc2F)[C@@H]2CCN(c3cnc4c(-c5ccc(O)nc5C(F)(F)F)n[nH]c4n3)C[C@@H]21 [Example 345, 5-(6-((1S,6R,7R)-7-(aminomethyl)-7-(2-fluorophenyl)-3-azabicyclo[4.1.0]heptan-3-yl)-1H-pyrazolo[3,4-b]pyrazin-3-yl)-6-(trifluoromethyl)pyridin-2-ol]
> 6.30 | Cc1cc(C2(CN)C3CCN(c4cnc5c(-c6cccc(Cl)c6Cl)n[nH]c5n4)CC32)on1 (stereo not drawn) [Example 6, (3-(3-(2,3-dichlorophenyl)-1H-pyrazolo[3,4-b]pyrazin-6-yl)-7-(3-methylisoxazol-5-yl)-3-azabicyclo[4.1.0]heptan-7-yl)methanamine]
> 6.30 | NCC1(c2ccccc2F)C2CCN(c3cnc4c(-c5cccc6ncccc56)n[nH]c4n3)CC21 (stereo not drawn) [Example 5, (7-(2-fluorophenyl)-3-(3-(quinolin-5-yl)-1H-pyrazolo[3,4-b]pyrazin-6-yl)-3-azabicyclo[4.1.0]heptan-7-yl)methanamine]
> 6.30 | Cc1nnc([C@@]2(CN)[C@@H]3CN(c4cnc5c(-c6ccc7nn(C)cc7c6Cl)n[nH]c5n4)C[C@@H]32)s1 [Example 501, ((1R,5S,6r)-3-(3-(4-chloro-2-methyl-2H-indazol-5-yl)-1H-pyrazolo[3,4-b]pyrazin-6-yl)-6-(5-methyl-1,3,4-thiadiazol-2-yl)-3-azabicyclo[3.1.0]hexan-6-yl)methanamine]
> 6.30 | NC[C@]1(c2cc(F)ccc2F)[C@@H]2CCN(c3cnc4nc(-c5ccc6c(c5)CCC(=O)N6)ccc4n3)C[C@@H]21 [Example 531, 6-(2-((1S,6R,7R)-7-(aminomethyl)-7-(2,5-difluorophenyl)-3-azabicyclo[4.1.0]heptan-3-yl)pyrido[2,3-b]pyrazin-6-yl)-3,4-dihydroquinolin-2(1H)-one]

Each compound was assayed on ERK phosphorylation in KYSE-520 cells (assay: Phospho-ERK cellular assay). Conditions: Homo sapiens, KYSE-520, 2 h, KYSE-520 cells, 2 h at 37° C., phospho-ERK1/2 (Thr202/Tyr204) TR-FRET; read-out: PERK IC50.
Format: cell-based
Method: ERK phosphorylation was detected using the “Advanced phospho-ERK1/2 (Thr202/Tyr204)” TR-FRET kit (Cisbio, Cat #64AERPEG/H), following the manufacturer reagents and instructions.
Briefly, 20.000/well KYSE-520 cells (DSMZ ACC 371) were plated in 6 μL RPMI-1640 (Invitrogen) growth medium, into 384 white low-volume high base TC microplates (Greiner). After an overnight incubation, cells were treated with DMSO serial diluted compounds and incubated for 2 h at 37° C. After incubation, 2 μL/well of 4×Lysis Buffer (Cisbio 64KL1FDF), were added and incubated with cells for 30 min on gentle shaking. Finally, lysates were added with 2 μL/well of Eu cryptate (donor) and D2 (acceptor) conjugated antibodies (as provided by the Cisbio kit #64AERPEG/H) diluted 1:100 in Detection Buffer (as provided by the Cisbio kit #64AERPEG/H). Plates were then sealed and incubated at room temperature in the dark. After an overnight incubation, the TR-FRET signal was detected on a suitable reader (Envision, PerkinElmer). The lower the TR-FRET signal the higher the higher the SHP2 inhibition in cells.
The activity of each compound dilution was calculated as percentage between vehicle DMSO treated cells and no cells, 0% inhibition and 100% inhibition respectively. The percentage activity is fitted against the compound dilutions with a four-parameter logistic regression. The inflection point (i.e. the concentration at which half-maximal inhibition is achieved) is the IC50.

pIC50 | SMILES
< 5.30 | NC[C@]1(c2ccccc2F)[C@@H]2CCN(c3cnc4c(-c5ccc(O)nc5C(F)(F)F)n[nH]c4n3)C[C@@H]21 [Example 345, 5-(6-((1S,6R,7R)-7-(aminomethyl)-7-(2-fluorophenyl)-3-azabicyclo[4.1.0]heptan-3-yl)-1H-pyrazolo[3,4-b]pyrazin-3-yl)-6-(trifluoromethyl)pyridin-2-ol]
> 6.00 | Cc1cc(C2(CN)C3CCN(c4cnc5c(-c6cccc(Cl)c6Cl)n[nH]c5n4)CC32)on1 (stereo not drawn) [Example 6, (3-(3-(2,3-dichlorophenyl)-1H-pyrazolo[3,4-b]pyrazin-6-yl)-7-(3-methylisoxazol-5-yl)-3-azabicyclo[4.1.0]heptan-7-yl)methanamine]
> 6.00 | NCC1(c2ccccc2F)C2CCN(c3cnc4c(-c5cccc6ncccc56)n[nH]c4n3)CC21 (stereo not drawn) [Example 5, (7-(2-fluorophenyl)-3-(3-(quinolin-5-yl)-1H-pyrazolo[3,4-b]pyrazin-6-yl)-3-azabicyclo[4.1.0]heptan-7-yl)methanamine]
> 6.00 | Cc1nnc([C@@]2(CN)[C@@H]3CN(c4cnc5c(-c6ccc7nn(C)cc7c6Cl)n[nH]c5n4)C[C@@H]32)s1 [Example 501, ((1R,5S,6r)-3-(3-(4-chloro-2-methyl-2H-indazol-5-yl)-1H-pyrazolo[3,4-b]pyrazin-6-yl)-6-(5-methyl-1,3,4-thiadiazol-2-yl)-3-azabicyclo[3.1.0]hexan-6-yl)methanamine]
< 5.30 | N#CNC(=O)c1ccc(-c2n[nH]c3nc(N4CC[C@@H]5[C@H](C4)[C@@]5(CN)c4ccccc4F)cnc23)c(Cl)c1 [Example 310, 4-(6-((1S,6R,7R)-7-(aminomethyl)-7-(2-fluorophenyl)-3-azabicyclo[4.1.0]heptan-3-yl)-1H-pyrazolo[3,4-b]pyrazin-3-yl)-3-chloro-N-cyanobenzamide]
> 6.00 | Cc1csc([C@@]2(CN)[C@@H]3CN(c4cnc(Sc5ccnc(-n6cccn6)c5Cl)cn4)C[C@@H]32)n1 [Example 520, ((1R,5S,6r)-3-(5-((3-chloro-2-(1H-pyrazol-1-yl)pyridin-4-yl)thio)pyrazin-2-yl)-6-(4-methylthiazol-2-yl)-3-azabicyclo[3.1.0]hexan-6-yl)methanamine]
> 6.00 | Cc1csc([C@@]2(CN)[C@@H]3CCN(c4cnc5c(-c6ccc(F)c7ncccc67)c[nH]c5n4)C[C@@H]32)n1 [Example 502, ((1S,6R,7S)-3-(7-(8-fluoroquinolin-5-yl)-5H-pyrrolo[2,3-b]pyrazin-3-yl)-7-(4-methylthiazol-2-yl)-3-azabicyclo[4.1.0]heptan-7-yl)methanamine]
< 5.30 | Cc1csc([C@@]2(CN)[C@@H]3CN(c4nc(C)n(-c5cccc(Cl)c5Cl)c(=O)c4Cl)C[C@@H]32)n1 [Example 526, 6-((1R,5S,6r)-6-(aminomethyl)-6-(4-methylthiazol-2-yl)-3-azabicyclo[3.1.0]hexan-3-yl)-5-chloro-3-(2,3-dichlorophenyl)-2-methylpyrimidin-4(3H)-one]
< 5.30 | NC[C@]1(c2ccccc2F)[C@@H]2CCN(c3cnc4c(-c5ccc(-c6nsc(O)n6)cc5Cl)n[nH]c4n3)C[C@@H]21 [Example 379, 3-(4-(6-((1S,6R,7R)-7-(aminomethyl)-7-(2-fluorophenyl)-3-azabicyclo[4.1.0]heptan-3-yl)-1H-pyrazolo[3,4-b]pyrazin-3-yl)-3-chlorophenyl)-1,2,4-thiadiazol-5-ol]
> 6.00 | Cc1c(-c2n[nH]c3nc(N4CC[C@@H]5[C@H](C4)[C@@]5(CN)c4cc(F)cc(F)c4)cnc23)ccc2nn(C)cc12 [Example 308, ((1S,6R,7R)-7-(3,5-difluorophenyl)-3-(3-(2,4-dimethyl-2H-indazol-5-yl)-1H-pyrazolo[3,4-b]pyrazin-6-yl)-3-azabicyclo[4.1.0]heptan-7-yl)methanamine]
> 6.00 | NCC1(c2ccccc2F)C2CCN(c3cc4nc(Sc5ccnc(N)c5Cl)cnc4[nH]3)CC21 (stereo not drawn) [Example 59, 4-((6-(7-(aminomethyl)-7-(2-fluorophenyl)-3-azabicyclo[4.1.0]heptan-3-yl)-5H-pyrrolo[2,3-b]pyrazin-2-yl)thio)-3-chloropyridin-2-amine]
< 5.30 | NC[C@]1(c2ccccc2F)[C@@H]2CCN(c3nc4nc(Sc5ccnc(-n6cccn6)c5Cl)cnc4[nH]3)C[C@@H]21 [Example 342, ((1S,6R,7R)-3-(5-((3-chloro-2-(1H-pyrazol-1-yl)pyridin-4-yl)thio)-1H-imidazo[4,5-b]pyrazin-2-yl)-7-(2-fluorophenyl)-3-azabicyclo[4.1.0]heptan-7-yl)methanamine]
> 6.00 | CC(C)(C)C#Cc1n[nH]c2nc(N3CC[C@@H]4[C@H](C3)[C@@]4(CN)c3ccccc3F)cnc12 [Example 366, ((1S,6R,7R)-3-(3-(3,3-dimethylbut-1-yn-1-yl)-1H-pyrazolo[3,4-b]pyrazin-6-yl)-7-(2-fluorophenyl)-3-azabicyclo[4.1.0]heptan-7-yl)methanamine]
< 5.30 | NC[C@]1(c2ccccc2F)[C@@H]2CCN(c3cnc4c(-c5ccc(CC(N)=O)cc5Cl)n[nH]c4n3)C[C@@H]21 [Example 328, 2-(4-(6-((1S,6R,7R)-7-(aminomethyl)-7-(2-fluorophenyl)-3-azabicyclo[4.1.0]heptan-3-yl)-1H-pyrazolo[3,4-b]pyrazin-3-yl)-3-chlorophenyl)acetamide]
> 6.00 | Cc1cc(C(N)=O)ncc1-c1n[nH]c2nc(N3CC[C@@H]4[C@H](C3)[C@@]4(CN)c3ccccc3F)cnc12 [Example 307, 5-(6-((1S,6R,7R)-7-(aminomethyl)-7-(2-fluorophenyl)-3-azabicyclo[4.1.0]heptan-3-yl)-1H-pyrazolo[3,4-b]pyrazin-3-yl)-4-methylpicolinamide]
> 6.00 | NC[C@]1(c2ccccc2F)[C@@H]2CCN(c3cnc4c(-c5ccc(-c6cc(F)c(O)c(F)c6)cc5Cl)n[nH]c4n3)C[C@@H]21 [Example 313, 4′-(6-((1S,6R,7R)-7-(aminomethyl)-7-(2-fluorophenyl)-3-azabicyclo[4.1.0]heptan-3-yl)-1H-pyrazolo[3,4-b]pyrazin-3-yl)-3′-chloro-3,5-difluoro-[1,1′-biphenyl]-4-ol]
> 6.00 | Cc1csc([C@@]2(CN)[C@@H]3CN(c4cnc5c(-c6ccnc(-n7cccn7)c6Cl)n[nH]c5n4)C[C@@H]32)n1 [Example 516, ((1R,5S,6r)-3-(3-(3-chloro-2-(1H-pyrazol-1-yl)pyridin-4-yl)-1H-pyrazolo[3,4-b]pyrazin-6-yl)-6-(4-methylthiazol-2-yl)-3-azabicyclo[3.1.0]hexan-6-yl)methanamine]
> 6.00 | Cc1cc([C@@]2(CN)[C@@H]3CCN(c4cnc5c(-c6cccc(-c7ncco7)c6Cl)n[nH]c5n4)C[C@@H]32)no1 [Example 111, ((1S,6R,7S)-3-(3-(2-chloro-3-(oxazol-2-yl)phenyl)-1H-pyrazolo[3,4-b]pyrazin-6-yl)-7-(5-methylisoxazol-3-yl)-3-azabicyclo[4.1.0]heptan-7-yl)methanamine]
> 6.00 | NC[C@]1(c2ccsn2)[C@@H]2CN(c3cnc4c(-c5ccc6nn(C(F)F)cc6c5Cl)n[nH]c4n3)C[C@@H]21 [Example 468, ((1R,5S,6r)-3-(3-(4-chloro-2-(difluoromethyl)-2H-indazol-5-yl)-1H-pyrazolo[3,4-b]pyrazin-6-yl)-6-(isothiazol-3-yl)-3-azabicyclo[3.1.0]hexan-6-yl)methanamine]
